Data on 5 compounds can be found in the Kinase Knowledgebase extract (Sharma et al. 2016).

Test [1] concerns the target CDK2 (human) (UniProt P24941). The experiment in a line: Enzyme Assay.
Test [2] concerns the target CDK2 (human) (UniProt P24941). As to the kind of experiment: Enzyme Assay. The source holds these as a separate data set.

Structures are written as SMILES.

Take `CCNC1CCN(c2ccc(Nc3nc(N)c(C(=O)c4cccc(F)c4)s3)cc2)CC1`: the IC50 at CDK2 (human) [1] and on CDK2 (human) [2] was 1.01 µM each time.
In the case of `Nc1nc(Nc2ccc(N3CCC(N4CCCC(O)C4)CC3)cc2)sc1C(=O)c1ccc2c(c1)OCCO2` (stereo not given), the IC50 against CDK2 (human) [1] and against CDK2 (human) [2] was 1.45 µM throughout.
`Nc1nc(Nc2ccc(N3CCC(N4CCCC(O)C4)CC3)cc2)sc1C(=O)c1ccc(Cl)cc1` (stereo not given): the IC50 on CDK2 (human) [1] and against CDK2 (human) [2] was 10 µM each time.
Turning to `CN(C)C1CCN(c2ccc(Nc3nc(N)c(C(=O)c4ccc([N+](=O)[O-])cc4)s3)cc2)CC1`, the IC50 at CDK2 (human) [1] and on CDK2 (human) [2] was 10 µM throughout.
As to `NC(=O)c1cc(C(=O)c2sc(Nc3ccc(N4CCC(N5CCCC5)CC4)cc3)nc2N)ccc1O`, the IC50 at CDK2 (human) [1] and at CDK2 (human) [2] was 10 µM each time.
